Measured values as given in US8906909B2 (Curis, Inc., priority 2009, dated 2014).

Test system: HDACs (HeLa cell nuclear extracts)
Test: HDAC enzymatic activity, Biomol Color de Lys system
Type: biochemical
Procedure: (e) An In Vitro Assay which Determines the Ability of a Test Compound to Inhibit HDAC Enzymatic Activity.
HDAC inhibitory activity was assessed using the Biomol Color de Lys system (AK-500, Biomol, Plymouth Meeting, Pa.). Briefly, HeLa cell nuclear extracts were used as a source of HDACs. Different concentrations of test compounds were serially diluted in dimethylsulphoxide (DMSO) and added to HeLa cell nuclear extracts in the presence of a colorimetric artificial substrate. Final assay condition contained 50 mM Tris/Cl, pH 8.0, 137 mM NaCl, 2.7 mM KCl and 1 mM MgCl2. Reactions were carried in room temperature (25° C.) for 1 hour before addition of developer for termination. Relative enzyme activity was measured in the WALLAC Victor II 1420 microplate reader as floorescence intensity (excitation: 350-380 nm; emission: 440-460 nm). Data were analyzed using GraphPad Prism (v4.0a) with a sigmoidal dose response curve fitting for IC50 calculation.

IC50 | Compound
< 0.1 µM | CC(c1cc2nc(-c3ccc(N)cc3)nc(N3CCOCC3)c2s1)N(C)c1ncc(C(=O)NO)cn1 (stereo not drawn) [Compound 214]
0.1 to 1 µM | CCCc1nc2cc(/C=C/C(=O)NO)ccc2n1CCN(C)Cc1cc2nc(-c3ccc(NC)nc3)nc(N3CCOCC3)c2s1 [Compound 322]
< 0.1 µM | C#CCCN(Cc1cc2nc(-c3cccc4[nH]ncc34)nc(N3CCOCC3)c2s1)c1ncc(C(=O)NO)cn1 [Compound 98]
< 0.1 µM | COc1ncc(-c2nc(N3CCOCC3)c3sc(NS(=O)(=O)c4cccc(/C=C/C(=O)NO)c4)cc3n2)cn1 [Compound 220]
< 0.1 µM | CN(Cc1cc2nc(-c3cccc4[nH]ncc34)nc(N3CCCCC3)c2s1)c1ncc(C(=O)NO)cn1 [Compound 67]
< 0.1 µM | COc1cccc(Nc2nc(-c3cccc4[nH]ncc34)nc3cc(CN(C)c4ncc(C(=O)NO)cn4)sc23)c1 [Compound 166]
< 0.1 µM | CN(Cc1cc2nc(-c3cccc(S(=O)(=O)CCO)c3)nc(N3CCOCC3)c2s1)c1ncc(C(=O)NO)cn1 [Compound 291]
< 0.1 µM | CN(c1ncc(C(=O)NO)cn1)c1cc2nc(-c3ccc(N)cc3)nc(N3CCOCC3)c2s1 [Compound 272]
< 0.1 µM | CC(=O)c1ccc(F)c(-c2nc(N3CCOCC3)c3sc(CN(C)c4ncc(C(=O)NO)cn4)cc3n2)c1 [Compound 301]
< 0.1 µM | C/C(=N/O)c1cccc(-c2nc(N3CCOCC3)c3sc(CN(C)c4ncc(C(=O)NO)cn4)cc3n2)c1 [Compound 299]
< 0.1 µM | CN(Cc1cc2nc(-c3c[nH]c4ccccc34)nc(N3CCOCC3)c2s1)c1ncc(C(=O)NO)cn1 [Compound 184]
< 0.1 µM | COc1ccc(-c2nc(N3CCOCC3)c3sc(C(C)(C)Nc4ncc(C(=O)NO)cn4)cc3n2)cn1 [Compound 250, N-Hydroxy-2-(2-(2-(6-methoxypyridin-3-yl)-4-morpholinothieno[3,2-d]pyrimidin-6-yl)propan-2-ylamino)pyrimidine-5-carboxamide]
< 0.1 µM | CN(Cc1cc2nc(-c3ccc(N)cc3F)nc(N3CCOCC3)c2s1)c1ncc(C(=O)NO)cn1 [Compound 283, 2-{[2-(4-Amino-2-fluoro-phenyl)-4-morpholin-4-yl-thieno[3,2-d]pyrimidin-6-ylmethyl]-methyl-amino}-pyrimidine-5-carboxylic acid hydroxyamide]
< 0.1 µM | Cc1ncc(-c2nc(N3CCOCC3)c3sc(CN(CCO)c4ncc(C(=O)NO)cn4)cc3n2)s1 [Compound 312]
< 0.1 µM | CN(Cc1cc2cc(-c3cccc4[nH]ncc34)nc(N3CCOCC3)c2s1)c1ncc(C(=O)NO)cn1 [Compound 74]
0.1 to 1 µM | CN(Cc1cc2nc(-c3ccc(N)cc3)nc(N3CCOCC3)c2s1)Cc1nc2cc(/C=C/C(=O)NO)ccc2n1C [Compound 327]
< 0.1 µM | Cc1c(CN(C)c2ncc(C(=O)NO)cn2)sc2c(N3CCOCC3)nc(-c3cccc4[nH]ncc34)nc12 [Compound 68]
< 0.1 µM | CNc1ccc(-c2nc(N3CCOCC3)c3sc(CN(CCO)c4ncc(C(=O)NO)cn4)cc3n2)cn1 [Compound 245]
< 0.1 µM | CN(Cc1cc2nc(-c3cccc4c3CNC4=O)nc(N3CCOCC3)c2s1)c1ncc(C(=O)NO)cn1 [Compound 181]
0.1 to 1 µM | O=C(NO)c1ccc2c(ccn2Cc2cc3nc(-c4cccc5[nH]ncc45)nc(N4CCOCC4)c3s2)c1 [Compound 105]
< 0.1 µM | NC(=O)CN(Cc1cc2nc(-c3cccc4[nH]ncc34)nc(N3CCOCC3)c2s1)c1ncc(C(=O)NO)cn1 [Compound 97]
< 0.1 µM | COc1ccc(-c2nc(N3CCOCC3)c3sc(C(C)N(C)c4ncc(C(=O)NO)cn4)cc3n2)cn1 (stereo not drawn) [Compound 247, N-hydroxy-2-((1-(2-(6-methoxypyridin-3-yl)-4-morpholinothieno[3,2-d]pyrimidin-6-yl)ethyl)(methyl)amino)pyrimidine-5-carboxamide]
0.1 to 1 µM | O=C(/C=C/c1ccc(CNCc2cc3nc(-c4cccc5[nH]ncc45)nc(N4CCOCC4)c3s2)cc1)NO [Compound 204]

Compound | IC50
CN(Cc1cc2nc(-c3cccc4[nH]ncc34)nc(N3CCNCC3)c2s1)c1ncc(C(=O)NO)cn1 [Compound 60] | < 0.1 µM
